Our source for the MIC values is patent US4447422A, “Penicillins and compositions containing them” (Beecham Group p.1.c., priority 1981, dated 1984).

Holding throughout (assay): antibacterial activity (MIC)
Format in all cases: cell-based

For assay [1], the system named is E coli ESS. The following applies: Table 1.
In assay [2] the test system is E coli JT4. The following applies: Table 1.
Assay [3] concerns E coli JT425. The following applies: Table 1.
In assay [4] the test system is E coli NCTC 10418.
For assay [5], the system named is Ps aeruginosa 10662. The conditions noted are these: Table 1.
Assay [6] concerns Ps aeruginosa Dalgleish. The conditions noted are these: Table 1; Ps aeruginosa Dalgleish 10^-2.
Assay [7] concerns Serratia marcescens US32. The following applies: Table 1.
The test system of assay [8] is Klebsiella aerogenes A. The conditions noted are these: Table 1.
The subject of assay [9] is Enterobacter cloacae N1. The conditions noted are these: Table 1.
Assay [10] has as its system P mirabilis C977. The following applies: Table 1.
The test system of assay [11] is P mirabilis 889. The conditions noted are these: Table 1.
Assay [12] has as its system P morganii. The following applies: Table 1.
The subject of assay [13] is P rettgeri. The following applies: Table 1.
The test system of assay [14] is B subtilis. The conditions noted are these: Table 1.
The subject of assay [15] is Staph aureus Oxford.
The subject of assay [16] is Staph aureus Russell. The conditions noted are these: Staphylococcus aureus, Table 1.
In assay [17] the test system is N catarrhalis 1502. The conditions noted are these: Table 1.
The test system of assay [18] is Step faecalis I. The following applies: Table 1.
Assay [19] relates to β-Haemolytic Strep CN10. The following applies: Table 1.
The mark [20] stands for this setting: Escherichia coli, NCTC10418, Table 2, gram negative organism E. coli NCTC 10418.
Setting [21] is: Staphylococcus aureus, Table 1, Staph aureus Oxford, read-out: MIC.
Setting [22] is: Table 2, gram positive organism Staph. aureus Oxford.
Setting [23] is: Staphylococcus aureus, Table 2, gram positive organism Staph. aureus Oxford, read-out: MIC.

Values after ≈ are worked out from the molar mass of the structure shown. Structures can show the parent of a compound that is named as a salt. Where two headings read alike, the source gives them in different places.

In general, MIC refers to the smallest concentration in the dilution series that meets the test's criterion for growth inhibition. Regarding `CCSCCNc1ncc(C(=O)N[C@@H](C(=O)N[C@@H]2C(=O)N3[C@@H]2SC(C)(C)[C@@H]3C(=O)O)c2ccccc2)c(O)n1` [Example 2, 6β-[D-2-(2-[2-Ethylthioethyl-1-amino]-4-hydroxypyrimidine-5-carbonylamino)-2-phenyl]acetamido penicillanic acid], the minimal inhibitory concentration (MIC) in assay [1] is less than 0.01 µg/mL; in assay [2], more than 500 µg/mL; in assay [3] it was 50 µg/mL (≈ 87 µM); in [4] (setting [20]), 2.5 µg/mL (≈ 4.35 µM); in assay [4] (Table 1, E coli NCTC 10418), 2.5 µg/mL (≈ 4.35 µM); in assay [5] (Ps aeruginosa 10662), 5 µg/mL (≈ 8.7 µM). In addition, the minimal inhibitory concentration (MIC) in [5] (Ps aeruginosa 10662 10^-2) was 2.5 µg/mL (≈ 4.35 µM); in [6] it was 125 µg/mL (≈ 218 µM); in assay [7] it was 12.5 µg/mL (≈ 21.8 µM); in assay [8], 12.5 µg/mL (≈ 21.8 µM); in assay [9], 12.5 µg/mL (≈ 21.8 µM); in [10] it was 2.5 µg/mL (≈ 4.35 µM). The MIC in [11] was more than 500 µg/mL; in [12] it was 25 µg/mL (≈ 43.5 µM); in assay [13], 12.5 µg/mL (≈ 21.8 µM); in assay [14], 1.25 µg/mL (≈ 2.18 µM); in assay [15] (setting [21]), 1.25 µg/mL (≈ 2.18 µM); in assay [15] (setting [22]) it was 1.25 µg/mL (≈ 2.18 µM). Moreover, the MIC is 125 µg/mL (≈ 218 µM) in assay [16], less than 0.01 µg/mL in assay [17], 5 µg/mL (≈ 8.7 µM) in assay [18] and less than 0.01 µg/mL in [19].
With `CCCCNc1ncc(C(=O)N[C@@H](C(=O)N[C@@H]2C(=O)N3[C@@H]2SC(C)(C)[C@@H]3C(=O)O)c2ccccc2)c(O)n1` [Example 16, 6β-[D-2-(2-n-Butylamino-4-hydroxypyrimidine-5-carbonylamino)-2-phenyl] acetamido penicillanic acid, disodium salt], the MIC in assay [1] is 0.02 µg/mL; in [2] it was more than 500 µg/mL; in [3], 50 µg/mL; in [4] (setting [20]), 1.2 µg/mL; in [4] (Table 1, E coli NCTC 10418), 1.5 µg/mL; in [5] (Ps aeruginosa 10662), 5 µg/mL. The minimum inhibitory concentration (MIC) is 125 µg/mL in [6]; 12.5 µg/mL in assay [7]; 12.5 µg/mL in [8]; 5 µg/mL in assay [9]; 2.5 µg/mL in [10]; more than 500 µg/mL in assay [11]. Besides, the MIC in [12] worked out at 5 µg/mL; in [13], 5 µg/mL; in [14] it was 1.2 µg/mL; in assay [15] (setting [21]) it was 1.2 µg/mL; in assay [15] (setting [22]), 1.2 µg/mL; in [16], 125 µg/mL. Besides, the minimum inhibitory concentration (MIC) in assay [17] turned out to be 0.02 µg/mL; in assay [18] it was 5 µg/mL; in assay [19], 0.02 µg/mL.
For `CC1(C)S[C@@H]2[C@H](NC(=O)[C@H](NC(=O)c3cnc(NCc4ccc(S(N)(=O)=O)cc4)nc3O)c3ccccc3)C(=O)N2[C@H]1C(=O)O` [Example 7, 6β-[D-2-(2-[4-sulphonamidobenzylamino]-4-hydroxypyrimidine-5-carbonylamino)-2-phenyl]acetamido penicillanic acid, disodium salt], the MIC was 10 µg/mL in [4] (setting [20]) and 2.5 µg/mL in [15] (setting [23]).
Turning to `CC1(C)S[C@@H]2[C@H](NC(=O)[C@H](NC(=O)c3cnc(NCc4ccccc4)nc3O)c3ccccc3)C(=O)N2[C@H]1C(=O)O` [Example 1, 6β-[D-2-(2-benzylamino-4-hydroxypyrimidine-5-carbonylamino)-2-phenyl]acetamido penicillanic acid], the minimal inhibitory concentration (MIC) is less than 0.02 µg/mL in assay [1]; more than 100 µg/mL in assay [2]; 25 µg/mL (≈ 43.4 µM) in assay [3]; 2.5 µg/mL (≈ 4.34 µM) in assay [4] (setting [20]); 2.5 µg/mL (≈ 4.34 µM) in assay [4] (Table 1, E coli NCTC 10418); 5 µg/mL (≈ 8.67 µM) in assay [5] (Ps aeruginosa 10662). The minimum inhibitory concentration (MIC) worked out at 2.5 µg/mL (≈ 4.34 µM) in [5] (Ps aeruginosa 10662 10^-2); 50 µg/mL (≈ 86.7 µM) in assay [6]; 10 µg/mL (≈ 17.3 µM) in [7]; 50 µg/mL (≈ 86.7 µM) in [8]; 10 µg/mL (≈ 17.3 µM) in assay [9]; 2.5 µg/mL (≈ 4.34 µM) in assay [10]. The minimum inhibitory concentration (MIC) in assay [11] was more than 100 µg/mL; in assay [12], 50 µg/mL (≈ 86.7 µM); in assay [13] it was 10 µg/mL (≈ 17.3 µM); in assay [14] it was 2.5 µg/mL (≈ 4.34 µM); in assay [15] (setting [21]) it was 0.5 µg/mL (≈ 0.867 µM); in assay [15] (setting [22]), 0.5 µg/mL (≈ 0.867 µM). The minimum inhibitory concentration (MIC) was 50 µg/mL (≈ 86.7 µM) in assay [16], less than 0.02 µg/mL in [17], 5 µg/mL (≈ 8.67 µM) in [18] and less than 0.02 µg/mL in [19].
As for `C=CCNc1ncc(C(=O)N[C@@H](C(=O)N[C@@H]2C(=O)N3[C@@H]2SC(C)(C)[C@@H]3C(=O)O)c2ccccc2)c(O)n1` [Example 21, 6β-[D-2-(2-Allylamino-4-hydroxypyrimidine-5-carbonylamino)2-phenyl] acetamido penicillanic acid, disodium salt], the MIC in assay [4] (setting [20]) was determined as 5 µg/mL; in [15] (setting [23]) it was 0.2 µg/mL.
As for `COc1cc(CNc2ncc(C(=O)N[C@@H](C(=O)N[C@@H]3C(=O)N4[C@@H]3SC(C)(C)[C@@H]4C(=O)O)c3ccccc3)c(O)n2)ccc1O` [Example 8, 6β-[D-2-(2[4-Hydroxy-3-methoxybenzylamino]-4-hydroxypyrimidine-5-carbonylamino)-2-phenyl] acetamido penicillanic acid, disodium salt], the values for the MIC in assay [4] (setting [20]) and in assay [15] (setting [23]) were 10 µg/mL and 1.2 µg/mL, respectively.
For the compound `CCCNc1ncc(C(=O)N[C@@H](C(=O)N[C@@H]2C(=O)N3[C@@H]2SC(C)(C)[C@@H]3C(=O)O)c2ccccc2)c(O)n1` [Example 15, 6β-[D-2-(2-n-propylamino-4-hydroxypyrimidine-5-carbonylamino)-2-phenyl] acetamido penicillanic acid, disodium salt], the minimal inhibitory concentration (MIC) in assay [4] (setting [20]) is 2.5 µg/mL; in assay [15] (setting [23]), 0.5 µg/mL.
The corresponding values for `CCCC(=O)Nc1ncc(C(=O)N[C@@H](C(=O)N[C@@H]2C(=O)N3[C@@H]2SC(C)(C)[C@@H]3C(=O)O)c2ccccc2)c(O)n1` [Example 22, 6β-[D-2-(2-n-butyrylamino-4-hydroxypyrimidine-5-carbonylamino)-2-phenyl] acetamido penicillanic acid, disodium salt] are 5 µg/mL and 0.5 µg/mL.
